{"source": "ChEMBL document CHEMBL1649188", "about": "“Posaconazole therapeutic drug monitoring: a reference laboratory experience” (Antimicrob Agents Chemother, 2009)", "format_in_all_cases": "ADME, organism-based", "conditions_in_all_cases": "in vivo", "key": {"Homo sapiens [1]": {"species_on_record": "Homo sapiens", "assay": "Drug level in patient serum with acute graft-versus-host disease by HPLC analysis"}, "Homo sapiens [2]": {"species_on_record": "Homo sapiens", "assay": "Drug level in patient serum with invasive aspergillosis by HPLC analysis"}, "Homo sapiens [3]": {"species_on_record": "Homo sapiens", "assay": "Drug level in patient serum with chronic graft-versus-host disease by HPLC analysis"}, "Homo sapiens [4]": {"species_on_record": "Homo sapiens", "assay": "Drug level in patient serum with infection by HPLC analysis"}}, "data": [{"smiles": "CC[C@@H]([C@H](C)O)n1ncn(-c2ccc(N3CCN(c4ccc(OC[C@@H]5CO[C@@](Cn6cncn6)(c6ccc(F)cc6F)C5)cc4)CC3)cc2)c1=O", "note": "[POSACONAZOLE]", "values": [{"measurement": "Drug uptake", "setting": "Homo sapiens [1]", "value": 0.958, "unit": "µg/mL"}, {"measurement": "Drug uptake", "setting": "Homo sapiens [2]", "value": 0.134, "unit": "µg/mL"}, {"measurement": "Drug uptake", "setting": "Homo sapiens [3]", "value": 1.47, "unit": "µg/mL"}, {"measurement": "Drug uptake", "setting": "Homo sapiens [4]", "value": 0.611, "unit": "µg/mL"}]}]}
